From patent US20220265834A1, “BCL-2 PROTEIN INHIBITORS” (Recurium IP Holdings, LLC, priority 2019, published 2022)

Tests used:
Format in all cases: cell-based
Bcl-xL [1] = target: T1, Bcl-xL (Homo sapiens, UniProt Q07817); test: Protein degradation assay in MOLT-4 cells (Western blot); design: host or cells: MOLT-4; settings: 100 nM compound, 16 hours, FIGS. 4 and 5
Method: (§1) MOLT-4 (ATCC, CRL-1582) (FIGS. 4, 5) were incubated with vehicle or 100 nM concentrations of the indicated compounds for 16 hours. MOLM-13 (DSMZ, ACC554) (FIG. 6,7) cells were incubated with vehicle or increasing concentrations of the indicated compound for 24 hours. For proteasome inhibition, MOLM-13 cells were pretreated with 1 μM of MG132 for 1 hour before the addition of 1 μM of the indicated compounds. After treatment, the cells were harvested in RIPA lysis buffer supplemented with 1% Phosphatase Inhibitor and Protease Inhibitor Cocktail. An equal amount of protein (10 μg/lane) from each cell extract was resolved on a 4-12% Bis-Tris gel. Proteins were transferred using iBlot 2 Transfer Stacks. The membranes were blocked with 5% nonfat milk in TBS-T buffer (50 mM Tris-HCL, pH 7.6; 150 mM NaCl; and 0.05% Tween) and probed with primary antibodies (1:1000 dilution) overnight at 4° C. After three washes with TBS-T (10 min/wash), the membranes were incubated with an appropriate peroxidase-conjugated secondary antibody (Cell Signaling Technology, USA) for 1 hour at rt. After three washes with TBS-T, the proteins of interest were detected with ECL Western Blotting Detection Reagents and captured with an Azure imaging system. The band intensities were determined using ImageJ software and normalized to loading control β-actin or GAPDH. The primary antibodies Bcl-xL (#2762), Bcl-2 (#2872s), Mcl-1 (#5453s) and β-actin (13E5, #4970), and GAPDH (#5174) were purchased from Cell Signaling Technology.

MOLT-4 cells = test: MOLT-4 Cell Proliferation Assay (CellTiter-Glo Luminescent Cell Viability Assay); settings: Homo sapiens, 72 h incubation, read-out: MOLT-4 (nM) CTG IC50
Method: Cell proliferation was measured using the CellTiter-Glo® Luminescent Cell Viability Assay. The assay involved the addition of a single reagent (CellTiter-Glo® Reagent) directly to cells cultured in serum-supplemented medium. MOLT-4 cells (ATCC, CRL-1582) were cultured according to ATCC recommendations and were seeded at 50,000 cells per well.
Each compound evaluated was prepared as a DMSO stock solution (10 mM). Compounds were tested in duplicate on each plate, with a 10-point serial dilution curve (1:3 dilution). The highest compound concentration was 10 μM (final), with a 0.1% final DMSO concentration. Plates were then incubated at 37° C., 5% CO2 for 72 h, cell plates were equilibrated at rt for approximately 30 mins. An equi-volume amount of CellTiter-Glo® Reagent (100 μL) was added to each well. Plates were mixed for 2 mins on an orbital shaker to induce cell lysis and then incubated at rt for 10 mins to stabilize the luminescent signal. Luminescence was recorded using a Envision plate reader according to CellTiter-Glo protocol. IC50 of each compound was calculated using GraphPad Prism by nonlinear regression analysis.

Bcl-xL [2] = target: T1, Bcl-xL; test: Protein degradation assay in MOLM-13 cells (Western blot); settings: for Bcl-xL degradation with proteasome inhibitor MG132 in MOLM-13 cells: pretreated with 1 μM MG132 for 1 hour, then 1 μM compound, FIG. 7; for Bcl-xL degradation in MOLM-13 cells: increasing concentrations, 24 hours, FIG. 6
Method: as §1

T1 sequence (Q07817 whole entry): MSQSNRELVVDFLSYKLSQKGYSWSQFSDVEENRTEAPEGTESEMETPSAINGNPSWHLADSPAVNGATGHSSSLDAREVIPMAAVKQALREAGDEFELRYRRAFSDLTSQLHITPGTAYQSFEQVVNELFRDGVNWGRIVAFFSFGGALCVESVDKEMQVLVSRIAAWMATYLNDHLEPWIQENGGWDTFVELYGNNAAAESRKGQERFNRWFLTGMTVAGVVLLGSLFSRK

Q: Which results are given for `CC1(C)CCC(CN2CCN(c3ccc(C(=O)NS(=O)(=O)c4ccc(N[C@H](CCN5CCC(C(=O)NCCOCCOCCNc6cccc7c6C(=O)N(C6CCC(=O)NC6=O)C7=O)CC5)CSc5ccccc5)c(S(=O)(=O)C(F)(F)F)c4)cc3)CC2)=C(C23CC(C(F)F)(C2)C3)C1` (stereo partly drawn) [Example 5, 1-((R)-3-((4-(N-(4-(4-((2-(3-(difluoromethyl)bicyclo[1.1.1]pentan-1-yl)-4,4-dimethylcyclohex-1-en-1-yl)methyl)piperazin-1-yl)benzoyl)sulfamoyl)-2-((trifluoromethyl)sulfonyl)phenyl)amino)-4-(phenylthio)butyl)-N-(2-(2-(2-((2-(2,6-dioxopiperidin-3-yl)-1,3-dioxoisoindolin-4-yl)amino)ethoxy)ethoxy)ethyl)piperidine-4-carboxamide]?
A: Bcl-xL degradation in MOLT-4 cells (Bcl-xL [1]): induce Bcl-xL degradation; IC50 (MOLT-4 cells): 100 to 200 nM

Q: What does the source list for `CC1(C)CCC(CN2CCN(c3ccc(C(=O)NS(=O)(=O)c4ccc(N[C@H](CCN5CCN(CCOCCOCCOCCNc6cccc7c6C(=O)N(C6CCC(=O)NC6=O)C7=O)CC5)CSc5ccccc5)c(S(=O)(=O)C(F)(F)F)c4)cc3)CC2)=C(C23CC(C(F)F)(C2)C3)C1` (stereo partly drawn) [Example 4, 4-(4-((2-(3-(difluoromethyl)bicyclo[1.1.1]pentan-1-yl)-4,4-dimethylcyclohex-1-en-1-yl)methyl)piperazin-1-yl)-N-((4-(((2R)-4-(4-(2-(2-(2-(2-((2-(2,6-dioxopiperidin-3-yl)-1,3-dioxoisoindolin-4-yl)amino)ethoxy)ethoxy)ethoxy)ethyl)piperazin-1-yl)-1-(phenylthio)butan-2-yl)amino)-3-((trifluoromethyl)sulfonyl)phenyl)sulfonyl)benzamide]?
A: Bcl-xL degradation in MOLT-4 cells (Bcl-xL [1]): induce Bcl-xL degradation; Bcl-xL degradation with proteasome inhibitor MG132 in MOLM-13 cells (Bcl-xL [2]): can be inhibited by proteasome inhibitor MG132; IC50 (MOLT-4 cells): ≤ 100 nM

Q: Which IC50 (MOLT-4 cells) does the source give for `CC1(C)CCC(c2ccc(Cl)cc2)=C(CN2CCN(c3ccc(C(=O)NS(=O)(=O)c4ccc(N[C@H](CCN5CCOCC5)CSc5ccccc5)c(S(=O)(=O)C(F)(F)F)c4)cc3)CC2)C1` [ABT-263, reference compound] here?
A: The IC50 was 100 to 200 nM.

Q: Which results are given for `CC1(C)CCC(CN2CCN(c3ccc(C(=O)NS(=O)(=O)c4ccc(N[C@H](CCN5CCN(CCOCCNc6cccc7c6C(=O)N(C6CCC(=O)NC6=O)C7=O)CC5)CSc5ccccc5)c(S(=O)(=O)C(F)(F)F)c4)cc3)CC2)=C(C23CC(C)(C2)C3)C1` (stereo partly drawn) [Example 9, 4-(4-((4,4-Dimethyl-2-(3-methylbicyclo[1.1.1]pentan-1-yl)cyclohex-1-en-1-yl)methyl)piperazin-1-yl)-N-((4-(((2R)-4-(4-(2-(2-((2-(2,6-dioxopiperidin-3-yl)-1,3-dioxoisoindolin-4-yl)amino)ethoxy)ethyl)piperazin-1-yl)-1-(phenylthio)butan-2-yl)amino)-3-((trifluoromethyl)sulfonyl)phenyl)sulfonyl)benzamide]?
A: Bcl-xL degradation in MOLT-4 cells (Bcl-xL [1]): induce Bcl-xL degradation; IC50 (MOLT-4 cells): ≤ 100 nM

Q: Which IC50 (MOLT-4 cells) does the source give for `CC1(C)CCC(CN2CCN(c3ccc(C(=O)NS(=O)(=O)c4ccc(N[C@H](CCN5CCN(C(=O)NCCOCCOCCNc6cccc7c6C(=O)N(C6CCC(=O)NC6=O)C7=O)CC5)CSc5ccccc5)c(S(=O)(=O)C(F)(F)F)c4)cc3)CC2)=C(C23CC(C(F)F)(C2)C3)C1` (stereo partly drawn) [Example 1, 4-((R)-3-((4-(N-(4-(4-((2-(3-(difluoromethyl)bicyclo[1.1.1]pentan-1-yl)-4,4-dimethylcyclohex-1-en-1-yl)methyl)piperazin-1-yl)benzoyl)sulfamoyl)-2-((trifluoromethyl)sulfonyl)phenyl)amino)-4-(phenylthio)butyl)-N-(2-(2-(2-((2-(2,6-dioxopiperidin-3-yl)-1,3-dioxoisoindolin-4-yl)amino)ethoxy)ethoxy)ethyl)piperazine-1-carboxamide] here?
A: Its IC50 is at least 200 nM.

Q: With `CC1(C)CCC(CN2CCN(c3ccc(C(=O)NS(=O)(=O)c4ccc(N[C@H](CCN5CCN(CCOCCOCCOCCNc6cccc7c6C(=O)N(C6CCC(=O)NC6=O)C7=O)CC5)CSc5ccccc5)c(S(=O)(=O)C(F)(F)F)c4)cc3)CC2)=C(C23CC(C)(C2)C3)C1` (stereo partly drawn) [Example 10, 4-(4-((4,4-dimethyl-2-(3-methylbicyclo[1.1.1]pentan-1-yl)cyclohex-1-en-1-yl)methyl)piperazin-1-yl)-N-((4-(((2R)-4-(4-(2-(2-(2-(2-((2-(2,6-dioxopiperidin-3-yl)-1,3-dioxoisoindolin-4-yl)amino)ethoxy)ethoxy)ethoxy)ethyl)piperazin-1-yl)-1-(phenylthio)butan-2-yl)amino)-3-((trifluoromethyl)sulfonyl)phenyl)sulfonyl)benzamide] as the compound, how does the “Bcl-xL degradation in MOLT-4 cells” value (Bcl-xL [1]) read?
A: Its value is “induce Bcl-xL degradation”.

Q: And the IC50 (MOLT-4 cells)?
A: Its IC50 is at most 100 nM.

Q: Which “Bcl-xL degradation in MOLT-4 cells” value (Bcl-xL [1]) does the source give for `CC1(C)CCC(CN2CCN(c3ccc(C(=O)NS(=O)(=O)c4ccc(N[C@H](CCN5CCN(CCOCCNc6cccc7c6C(=O)N(C6CCC(=O)NC6=O)C7=O)CC5)CSc5ccccc5)c(S(=O)(=O)C(F)(F)F)c4)cc3)CC2)=C(C23CC(C(F)F)(C2)C3)C1` (stereo partly drawn) [Example 2, 4-(4-((2-(3-(Difluoromethyl)bicyclo[1.1.1]pentan-1-yl)-4,4-dimethylcyclohex-1-en-1-yl)methyl)piperazin-1-yl)-N-((4-(((2R)-4-(4-(2-(2-((2-(2,6-dioxopiperidin-3-yl)-1,3-dioxoisoindolin-4-yl)amino)ethoxy)ethyl)piperazin-1-yl)-1-(phenylthio)butan-2-yl)amino)-3-((trifluoromethyl)sulfonyl)phenyl)sulfonyl)benzamide] here?
A: Its value is “induce Bcl-xL degradation”.

Q: What about the “Bcl-xL degradation in MOLM-13 cells” value (Bcl-xL [2]) of the same compound?
A: The value was “can induce Bcl-xL degradation in MOLM-13 cells in a dose dependent manner”.

Q: What about the “Bcl-xL degradation with proteasome inhibitor MG132 in MOLM-13 cells” value (Bcl-xL [2]) of the same compound?
A: Its value is “can be inhibited by proteasome inhibitor MG132”.

Q: And the IC50 (MOLT-4 cells)?
A: Its IC50 is at most 100 nM.

Q: What does the source list for `CC1(C)CCC(CN2CCN(c3ccc(C(=O)NS(=O)(=O)c4ccc(N[C@H](CCN5CCN(CCOCCOCCNc6cccc7c6C(=O)N(C6CCC(=O)NC6=O)C7=O)CC5)CSc5ccccc5)c(S(=O)(=O)C(F)(F)F)c4)cc3)CC2)=C(C23CC(C(F)F)(C2)C3)C1` (stereo partly shown) [Example 3]?
A: Bcl-xL degradation in MOLM-13 cells (Bcl-xL [2]): can induce Bcl-xL degradation in MOLM-13 cells in a dose dependent manner; Bcl-xL degradation with proteasome inhibitor MG132 in MOLM-13 cells (Bcl-xL [2]): can be inhibited by proteasome inhibitor MG132

Q: Which “Bcl-xL degradation in MOLT-4 cells” value (Bcl-xL [1]) does the source give for `CC1(C)CCC(CN2CCN(c3ccc(C(=O)NS(=O)(=O)c4ccc(N[C@H](CCN5CCN(CCOCCNc6ccc7c(c6)C(=O)N(C6CCC(=O)NC6=O)C7=O)CC5)CSc5ccccc5)c(S(=O)(=O)C(F)(F)F)c4)cc3)CC2)=C(C23CC(C(F)F)(C2)C3)C1` (stereo partly drawn) [Example 6, 4-(4-((2-(3-(Difluoromethyl)bicyclo[1.1.1]pentan-1-yl)-4,4-dimethylcyclohex-1-en-1-yl)methyl)piperazin-1-yl)-N-((4-(((2R)-4-(4-(2-(2-((2-(2,6-dioxopiperidin-3-yl)-1,3-dioxoisoindolin-5-yl)amino)ethoxy)ethyl)piperazin-1-yl)-1-(phenylthio)butan-2-yl)amino)-3-((trifluoromethyl)sulfonyl)phenyl)sulfonyl)benzamide] here?
A: Its value is “induce Bcl-xL degradation”.

Q: And the IC50 (MOLT-4 cells)?
A: The IC50 was at most 100 nM.
